# Assays:
# pri-miR-27a = assay: Competitive MST binding assay with unlabeled miR-27a precursor; parameters: species or system human; conditions: 100 nM compound, Cy5-labeled Drosha site model
# Protocol: To measure the affinity of 9 for the 5′GAG/3′CCC loop in the context of pri-miR-27a, a competitive binding assay was used with a constant concentration of compound (100 nM) and the Cy5-labeled model of pri-miR-27a's Drosha site, and varying concentrations of unlabeled miR-27a precursor as reported by miRBase. (35) That is, the miR-27a precursor competes with the Cy5-labeled model of pri-miR-27a's Drosha site for binding 9. […] Thus, the compounds identified by using DEL-2DCS can bind avidly to biologically relevant RNA targets identified by Inforna.
# For competitive binding assays, both WT and mutant pri-miR-27a RNAs were transcribed as previously described (see Table S6 for sequences). (11) The RNA was purified by gel electrophoresis and folded in 1× Binding Buffer at final concentration of 750 nM by heating at 60° C. for 5 min and then slowly cooling to room temperature. […] The resulting data were analyzed by SigmaPlot and fitted by Equation 2 to yield the competitive dissociation constant (Kd competitive).
# where F is the concentration of fluorescence-labeled RNA; unbound and bound refers to the thermophoresis signal at completely unbound and bound state of RNA, respectively; c is the concentration of the compound; f (c) is the thermophoresis signal at compound concentration of c; Kd is the dissociation constant. […]
# PDCD4 = assay: Western blot of PDCD4 in MDA-MB-231 cells; format: cell-based, human; conditions: relative to β-actin, 48 h
# Protocol: (§1) Western Blotting: MDA-MB-231 cells were grown in 6-well plates to ˜80% confluency in complete growth medium and then incubated with 9 at the indicated concentrations for 48 h. Total protein was extracted using M-PER Mammalian Protein Extraction Reagent (Pierce Biotechnology) using the manufacturer's protocol and quantified using a Micro BCA Protein Assay Kit (Pierce Biotechnology). Approximately 50 μg of total protein was separated on a 10% SDS-polyacrylamide gel, and then transferred to a PVDF membrane. The membrane was washed with 1× Tris-buffered saline (TBS) and then blocked in 1×TBST (1×TBS containing 0.1% (v/v) Tween-20) containing 5% (w/v) milk for 1 h at room temperature. […] The membrane was again washed with 1×TBST, and protein expression was quantified using SuperSignal West Pico Chemiluminescent Substrate (Pierce Biotechnology) per the manufacturer's protocol.
# (§2) To quantify b-actin expression, used for normalization, the membrane was stripped using 1× Stripping Buffer (200 mM glycine, pH 2.2 and 0.1% SDS) followed by washing in 1×TBST. […] The fold change of the target protein expression (PP4C or PDCD4) was calculated by normalizing its band intensity to b-actin band intensity using ImageJ.
# [1] = test system: fully paired RNA (loop mutated to a base pair); assay: Binding affinity by MST, Cy5-labeled fully paired RNA
# Protocol: Binding affinity measurements: Binding affinities were measured by microscale thermophoresis (MST), performed on a Monolith NT.115 system (NanoTemper Technologies) with Cy5-labeled RNAs. These RNAs include: the 5′GAG/3′CCC SEQ ID NO: 16 loop at pri-miR-27a's Drosha site (Sequence:/5′-Cy5/rCrUrGrArGrGrUrGrArArArCrArUrCrCrCrArG SEQ ID NO: 17; Dharmacon), a related internal loop not selected by 9. 5′CAG/3′GCC SEQ ID NO: 17 loop (Sequence:/5′-Cy5/rCrUrCrArGrGrUrGrArArArCrArUrCrCrGrArG SEQ ID NO: 16; Dharmacon), and an RNA in which the loop is mutated to a base pair (Sequence:/5-Cy5/rCrUrGrArGrGrUrGrArArArCrArUrCrUrCrArG SEQ ID NO: 16; Dharmacon).
# Briefly, Cy5-labeled RNA (10 nM) was prepared in 1× Binding Buffer and folded by heating at 60° C. for 5 min and then slowly cooling to room temperature. After cooling, Tween-20 was added to a final concentration of 0.1% (v/v). Compound solutions were prepared separately in 20 μL of 1× Binding Buffer at a final concentration of 5 μM (1% (v/v) DMSO), followed by 1:1 serial dilutions in 1× Binding Buffer. RNA and compound solutions were then mixed 1:1 by volume to a total of 20 μL.
# Samples were incubated for 20 min at room temperature and then loaded into premium capillaries (NanoTemper Tech, Cat #MO-K025). The following parameters were used for MST measurements: 5-20% LED power (adjusted to keep fluorescence intensity between 2000 and 8000), 80% MST power, Laser-On time=30 s, Laser-Off time=25 s. The resulting data were analyzed by calculating the change in thermophoresis as a function of compound concentration and fitted by Equation 1, a one site binding model, in NanoTemper Tech's MST analysis software to yield the dissociation constant (Kd):
# Where F is the concentration of fluorescently labeled RNA; unbound and bound refer to the thermophoresis signal at completely unbound and bound state of RNA, respectively; c is the concentration of the compound; f (c) is the thermophoresis signal at compound concentration of c; and Kd is the dissociation constant.
# PP4C = assay: Western blot of PP4C in MDA-MB-231 cells; format: cell-based, human; conditions: relative to β-actin, 48 h
# Protocol: as §1, §2
smiles,measurement,setting,value
C#CCN(CC(N)=O)C(=O)C[C@H](Cc1c[nH]c2ccccc12)NC(=O)[C@@H]1C[C@H](NC(=O)Cn2c(=O)[nH]c3ccccc3c2=O)CN1 [Compound 9],Kd,pri-miR-27a,40 ± 30 nM
same,PDCD4 expression,PDCD4,upregulation
same,saturable binding,[1],Saturable binding was not observed
same,PP4C expression,PP4C,upregulation
